The source of these data is patent US12115208B2, “Small-molecule adjuvants for antibiotics to address antibiotic resistance” (HIGH POINT UNIVERSITY, priority 2017, dated 2024).

Each structure is given as a SMILES string. Where two headings read alike, the source gives them in different places.

Assay [1] relates to S. aureus 43300 (MRSA). As to the kind of experiment: Antibiotic repotentiation (antibiotic MIC with/without compound). Conditions: S. aureus 43300 (MRSA); for Fold Reduction: oxacillin MIC. It is filed as cell-based, Staphylococcus aureus. As for the experimental part:
(§1) The overnight culture was diluted into fresh CAMHB to a concentration of 5×10^5 CFU/ml. […] On the same plate, a standard microdilution MIC with the tested antibiotics and no added compound was also performed to compare the antibiotic MIC in the presence and absence of compound. […] Fold reductions were calculated by dividing the MIC of the antibiotic without compound by the MIC of the antibiotic in the presence of compound.
(§2) The compounds were then analyzed for antibiotic repotentiation activity. […] The tested strains included USA300, which is a common and particularly virulent strain of community-acquired MRSA.

Assay [2] deals with S. epidermidis ATCC 49461 biofilm. The assay can be described thus: Biofilm inhibition, crystal violet assay. It is filed as cell-based, Staphylococcus epidermidis. As to conditions: Staphylococcus epidermidis, ATCC49461, 30 h, read-out: Inhibition of biofilm formation IC50. The protocol: (§3) A standard static crystal violet assay was used to quantify biofilm inhibition.^45 Cultures of S. aureus or S. epidermidis were grown overnight in TSBG (tryptic soy broth with 5% glucose) at 37° C. with shaking. These cultures were used to inoculate fresh TSBG to a calculated optical density of 0.01 at 600 nm (OD600). […] Untreated aliquots were used as a positive control and water served as a negative control. 100 μl of these suspensions were added to the wells of a 96-well polyvinylchloride microtiter plate. […] After incubation, media was discarded and the plates were washed with water to remove non-adherent cells. Adherent biofilms were stained with 110 μl of crystal violet (0.1% in water) and incubated at room temperature for thirty minutes. The crystal violet staining solution was discarded and plates were washed with water to remove excess stain. The resulting stained biofilms were solubilized with 200 μL of 95% ethanol for 10 minutes. 125 μl of the ethanol solutions were transferred to a clear polystyrene microtiter plate for evaluation. Absorbance at 540 nm was recorded using a BioTek Synergy H1 microplate reader. The absorbance of the negative control lanes was subtracted from the experimental values to account for background staining. Percent inhibition was calculated by comparison of the absorbance values of control versus treated wells under identical conditions.

Assay [3] deals with S. aureus ATCC 29213. The assay can be described thus: Minimum inhibitory concentration, broth microdilution. It is filed as cell-based. Conditions: Staphylococcus aureus. The protocol: as §2
In assay [4] the test system is S. epidermidis 49461. The assay can be described thus: Antibiotic repotentiation (oxacillin MIC with/without compound). It counts as cell-based, Staphylococcus epidermidis. Conditions: +75 μM compound, S. epidermidis 49461. The protocol:
as §1
Antibiotic potentiation in S. epidermidis was also investigated.

The test system of assay [5] is S. aureus USA300 (MRSA). The assay can be described thus: Minimum inhibitory concentration, broth microdilution. It counts as cell-based, Staphylococcus aureus. As to conditions: 18 h. The protocol: as §2
Assay [6] relates to S. aureus ATCC 43300 (MRSA). The description is as above. It counts as cell-based, Staphylococcus aureus. Conditions: 18 h. The protocol:
as §2

For assay [7], the system named is MRSA 43300 biofilm. As to the kind of experiment: Biofilm inhibition, crystal violet assay. It counts as cell-based, Staphylococcus aureus. As to conditions: 30 h. As for the experimental part: as §3
Antibiotic resistance and biofilm formation share similar regulatory mechanisms. […] Biofilm inhibition was first assessed in S. aureus 43300, a methicillin-resistant strain (see Table 18). As described in Materials and Methods, a standard crystal violet assay was used to assess biofilm inhibition by the tested compounds. The IC50 is described as the compound concentration required to inhibit 50% of biofilm formation. The standard deviation is calculated from at least 3 independent experiments.

Assay [8] relates to S. aureus USA300 (MRSA). The assay can be described thus: Antibiotic repotentiation (antibiotic MIC with/without compound). It counts as cell-based, Staphylococcus aureus. Conditions: +50 μM compound, S. aureus USA300 (MRSA). As for the experimental part:
as §1, §2

The subject of assay [9] is S. aureus USA100 (MRSA). As to the kind of experiment: microbe, parasite or virus in culture. Conditions: compound alone, CAMHB, 18 h. It is filed as cell-based, Staphylococcus aureus.
The subject of assay [10] is S. aureus USA100 (MRSA). As to the kind of experiment: Antibiotic repotentiation (antibiotic MIC with/without compound). It is filed as cell-based, Staphylococcus aureus. As to conditions: oxacillin MIC, +50 μM compound; S. aureus USA100 (MRSA). As for the experimental part: as §1
Setting [11] is: ATCC29213, compound alone, S. aureus ATCC 29213, CAMHB, 18 h, read-out: MIC.
The mark [12] stands for this setting: Staphylococcus aureus, compound alone, S. aureus USA300 (MRSA), CAMHB, read-out: MIC.
Setting [13] is: Staphylococcus aureus, compound alone, S. aureus ATCC 43300 (MRSA), CAMHB, read-out: MIC.

For the compound `CN1CCN(C2=Nc3ccccc3Oc3ccc(Cl)cc32)CC1` [Loxapine, 2-chloro-11-(4-methyl-1-piperazinyl)dibenz[b,f][1,4]oxazepine, reference compound], the “Fold Reduction” value is 1 in [1] (+75 μM compound), 4 in assay [1] (+150 μM compound) and 2 in assay [4] (oxacillin MIC). For the same compound, the IC50 in [2] was 270 µM. For the same compound, the MIC in assay [3] (setting [11]), in assay [5] (setting [12]) and in assay [6] (setting [13]) was 600 µM throughout. Also, the “Oxacillin MIC” value in assay [4] is 8 µg/mL.

For `Cc1cc2c(s1)Nc1ccccc1N=C2N1CCN(C)CC1` [Olanzapine, reference compound], the “Fold Reduction” value in assay [1] (+75 μM compound) and in [1] (+150 μM compound) was 1 in each case. Besides, the MIC is 600 µM in assay [3] (ATCC29213, 18 h); 600 µM in assay [5] (Staphylococcus aureus); 600 µM in assay [6] (Staphylococcus aureus).

`CN1CCN(C2=Nc3cc(Cl)ccc3Nc3ccccc32)CC1` [Clozapine, 8-chloro-11-(4-methyl-1-piperazinyl)-5H-dibenzo[b,e][1,4]diazepine, reference compound]: the MIC worked out at 1200 µM in assay [3] (setting [11]), 600 µM in assay [5] (setting [12]) and 600 µM in assay [6] (setting [13]). For the same compound, the “Oxacillin MIC” value in assay [4] was 16 µg/mL.

`Clc1ccc2[nH]c3ccc(Cl)cc3c2c1` [IV-6]: the IC50 in assay [7] amounted to 10.2 µM. The “Oxacillin MIC” value in [8] was 16/8; in assay [1] (+50 μM compound), 1 µg/mL. The entries for the “Fold Reduction” value in assay [8] (oxacillin MIC), in [1] (+50 μM compound) and in assay [10] were 4/8, 32 and 1024/2048, respectively. Besides, the MIC in [9] is more than 200 µM; in assay [5] (compound alone, S. aureus USA300 (MRSA), CAMHB, read-out: MIC), more than 200 µM; in [6] (compound alone, S. aureus ATCC 43300 (MRSA), CAMHB, read-out: MIC), more than 200 µM.

As usually defined, the IC50 is the concentration that gives 50% inhibition.
